Data taken from patent publication US20260209152A1, “Substituted Hydroxystilbene Compounds and Derivatives, Synthesis and Uses Thereof” (Kynan Duke IP, LLC, priority 2019, published 2026).
Like-named read-outs stand apart in the source and are kept apart here.

Legend:
[1] = test system: IL-2 secretion from human CD4-positive T-cells stimulated with antiCD2/antiCD3/antiCD28-coated beads; assay: T-cell IL-2 assay (assay number 1297, 1298); type: cell-based; details: for Max Eff.: IL-2 (1297): highest effect as percentage of control maximum effect; for EC50: inhibition of IL-2 secretion, human CD4-positive T-cells, read-out: Abs EC50: IL-2 (1297)
Description: Inhibition of IL-4 and IL-2 secretion from human CD4-positive T-cells stimulated with antiCD2/antiCD3/antiCD28-coated beads. LEO Pharma Open Innovation assay number 1297, 1298, 1299.
Then the level of secreted of IL-4 is measured in the culture supernatant using electrochemiluminescence (MSD kits, Meso Scale Discovery), IL-2 is measured by proximity homogenous time-resolved fluorescence (HTRF) and the amount of living cells is measured by addition of resazurin (PrestoBlue®) to allow identifying compounds that inhibit T-cell proliferation or viability.
• Peripheral blood mononuclear cells (PBMC) are isolated from fresh human buffy coats by centrifugation on Lymphoprep® following instructions from Sebmate™ (Stemcell). • The cells are resuspended in 30 ml of PBS+2% Serum and counted. • CD4 positive T-cells are isolated from freshly isolated PBMC using EasySep™ humane CD4+ T-cell Isolation Kit (Catalog #17952) and following the manufacturer's protocol. • Cells are spun down and resuspended in freezing medium (X-vivo 15+10% FBS+5% DMSO) • Cells are frozen in aliquots of 3×10^7 cells/vial matching one 384 plate. Cells are place in Coolcell box and place in −80° C. freezer for one day then transferred to the −150° C. freezer in a prechilled box.
• Prepare assay medium: 500 ml X-Vivo 15+5 ml Glutamax (2 mM final)+5 ml pen/strep (100 U/ml final). • Add 5 μL medium to the wells of a 384 well plate (Greiner cat. No 788986). • CD4+ Cells: Thaw frozen cells from −150° C. freezer in 37° C. bath, and pipette the cells into 10 ml medium. Spin 10 min @170 g. • Resuspend pellet in 3.5 ml per 2.5×10^7 cells and add 10 μL per well to the plate (40000 cells/well) • Test compounds: Prepare compound-containing source plate, i.e. titrations in DMSO to be transferred to the assay plate. • Add 25 nL compounds and controls from the source plate to the assay plate (with cells). • Beads (T Cell Activation/Expansion Kit-human, Miltenyi Biotech, cat. no. 130-091-441): Coat beads with antibodies according to the kit procedure. • Add 10 μL beads to each well except for the negative controls. One bead per cell. Add 10 μL medium to the negative controls. • Incubate plates at 37° C., 5% CO2/95% air for 2 days.
• Remove plates from incubation and equilibrate to room temperature for 30 minutes. • IL-4 concentration in 10 μL supernatant is measured using an MSD IL-4 384-plate kit (Custom made) according to manufacturer protocol. • IL-2 concentrations in the supernatant is measured by an IL-2 HTRF kit, CisBio, cat. No 62HIL02PEH. • Add 4 μL medium to white proxi 384-well plates • Add 1 μL supernatant. • Add 4 μL mHTRF mix (each diluted 1:300 in ⅔ reconstitution buffer and ⅓ assay medium). • Spin the plates for 1 minute at 170 g • Seal and incubate overnight and read fluorescence in a plate reader • The amount of viable cells is measured by PrestoBlue® reagent • Add 15 μL diluted PrestoBlue® reagent (resazurin) corresponding to 2.5 μL Prestoblue/well to the assay plate. • Incubate overnight at 37° C./5% CO2. The fluorescence in the wells is measured (Ex615/Em 535).
IL-4 concentration in the supernatants is measured using electrochemiluminescence (MSD kits, Meso Scale Discovery). IL-2 concentration in the supernatants is measured using homogeneous time-resolved fluorescence resonance (TR-FRET). The assay is quantified by measuring fluorescence at 665 nm (proportional to IL-2 concentration) and 620 nm (control). A ratio 665/620*1000 is calculated.
The capacity of the test compound to inhibit IL-4 and IL-2 release is normalized to the signal in the negative control wells with un-stimulated T-cells.

human PBMC = assay: Cell viability in PBMC IL-17 assay (assay number 1322); type: cell-based; details: Homo sapiens
Description: (§1) The inflammatory skin disease psoriasis is characterized by cytokines IL-17A and TNFα. In the present assay, human peripheral blood mononuclear cells (PBMC) are stimulated with beads coated with antibodies against CD3 and CD28 to activate the T-cell receptor, and stimulated with IL-23 to promote T-helper17 activity. The cells are incubated for three days, then the secreted level of IL-17A is measured in the culture supernatant using AlphaLISA and the amount of living cells is measured by addition of resazurin (PrestoBlue®) to identify compounds that inhibit cell proliferation or viability. […] Compounds which inhibit IL-17A secretion may be expected to have efficacy in psoriasis.
(§2) • IL-17A concentration in the supernatants is measured using an alphaLISA kit (Perkin Elmer, cat no. AL219F). • Pretest to find optima dilution of samples: Test 5 μL supernatant from control wells and run IL-17A alphaLISA assay with only 2 hours of incubation. • When data are available, remove assay plates from incubation and equilibrate to room temperature for 30 minutes. • Transfer 5 μL or corrected amounts of supernatant to a 384-proxy plate • Add 5 μL alphaLISA acceptor beads. • Incubate 1 hour at room temperature • Add 5 μL donor beads • Incubate overnight at room temperature protected from light. • Add 7 μL PrestoBlue reagent (resazurin)/well to the assay plate and incubated for 2-4 hours at 37° C./5% CO2. The fluorescence in the wells is measured (Ex615/Em 535).
(§3) The level of living cells in the wells is measured by the addition of PrestoBlue® and the conversion of Resazurin to Resorufin (fluorescent) in living cells is measured.
(§4) The effect of the test compounds on viability/proliferation is normalized to the PrestoBlue signal in the negative control wells treated with a toxic compound, Terfenadine.

[2] = as above; type: cell-based, human; details: human
Description: as §1, §2, §3, §4

[3] = test system: primary human keratinocytes; assay: Cell viability in keratinocyte IL-8 assay (assay number 1244); type: cell-based; details: Homo sapiens
Text: • 1. Determination of inhibition of CCL2 release from IL-4, IL-13, IL-22 and IFN-γ-stimulated primary human keratinocytes [assay number 1280] and determination of the effect on cell viability [assay number 1243]. • 2. Determination of inhibition of IL-8 release from IL-17A and TNFα-induced primary human keratinocytes [assay number 1250] and determination of the effect on cell viability [assay number 1244]. • 3. Determination of inhibition of IL-17A secretion from human PBMC stimulated with antiCD3/antiCD28-coated beads [assay number 1321] and determination of the effect on cell viability [assay number 1322]. • 4. Determination of inhibition of IL-4 and IL-2 secretion from human CD4-positive T-cells stimulated with antiCD2/antiCD3/antiCD28-coated beads [assay number 1297, 1298] and determination of the effect on cell viability [assay number 1299].

[4] = cell viability in PBMC IL-17 assay, read-out: Abs EC50: Viab (1322)
[5] = maximum reduction of cell viability in PBMC IL-17 assay, read-out: Max Eff.: Viab (1322)
[6] = Keratinocyte, cell viability in IL-8 assay, read-out: Abs EC50: Viab (1244)
[7] = keratinocyte IL-8 assay, read-out: EC50, cell viability

SMILES | Max Eff.: IL-2 (1297) [1] | EC50 [1] | EC50 (human PBMC; [4]) | cytotoxicity at 3 days [2, 5] | EC50 [3, 6] | EC50 [3, 7] | inhibition of IL-2 secretion, in words [1] | EC50 (human PBMC; PBMC IL-17 assay, read-out: EC50, cell viability) | cytotoxicity at 3 days ([2]; PBMC IL-17 assay, read-out: maximum reduction of cell viability)
COc1cc(/C=C/c2cc(O)cc(OC)c2CC=C(C)C)ccc1O [Compound 1, (E)-3-(4-hydroxy-3-methoxystyryl)-5-methoxy-4-(3-methylbut-2-en-1-yl)phenol] | 42% | 5 µM | 5 µM | 50% | 0.09 µM | – | – | – | –
CCOc1cc(O)cc(/C=C/c2ccc(NC(=O)C(=O)O)c(OC)c2)c1CC=C(C)C [Compound 35, (E)-2-((4-(3-Ethoxy-5-hydroxy-2-(3-methylbut-2-en-1-yl)styryl)-2-methoxyphenyl)amino)-2-oxoacetic acid] | 16% | 5 µM | 5 µM | 18% | 5 µM | – | – | – | –
COc1cc(/C=C/c2cc(O)cc(OC)c2CC=C(C)C)ccc1NC(=O)CN [Compound 31, (E)-2-amino-N-(4-(5-hydroxy-3-methoxy-2-(3-methylbut-2-en-1-yl)styryl)-2-methoxyphenyl)acetamide] | 36% | 5 µM | 5 µM | 32% | 0.416 µM | – | – | – | –
CCOc1cc(O)cc(/C=C/c2ccc(O)c(OC)c2)c1CC=C(C)C [Compound 8, (E)-3-Ethoxy-5-(4-hydroxy-3-methoxystyryl)-4-(3-methylbut-2-en-1-yl)phenol] | 51% | 5 µM | 0.582 µM | 57% | 0.032 µM | – | – | – | –
CCOc1cc(O)cc(/C=C/c2ccc(O)c(O)c2)c1CC=C(C)C [Compound 20, (E)-4-(3-Ethoxy-5-hydroxy-2-(3-methylbut-2-en-1-yl)styryl)benzene-1,2-diol] | 34% | 5 µM | 5 µM | 47% | 0.221 µM | – | – | – | –
COc1cc(/C=C/c2cc(O)cc(OC)c2CC=C(C)C)ccc1NC=O [Compound 27, (E)-N-(4-(5-hydroxy-3-methoxy-2-(3-methylbut-2-en-1-yl)styryl)-2-methoxyphenyl)formamide] | 46% | 5 µM | 5 µM | 52% | 0.032 µM | 0.032 µM | – | – | –
CCOc1cc(O)cc(/C=C/c2ccc(NC=O)c(OC)c2)c1CC=C(C)C [Compound 28, (E)-N-(4-(3-Ethoxy-5-hydroxy-2-(3-methylbut-2-en-1-yl)styryl)-2-methoxyphenyl)formamide] | 55% | 4.26 µM | 0.659 µM | – | 0.035 µM | 0.035 µM | lower potency effect | 0.659 µM | 54%
